Experimental data reported in ChEMBL document CHEMBL1201862, “PubChem BioAssay data set” (2004).
Calls of active or inactive are those of the source.

How the values were obtained:
[1] = inhibitors of SNCA 5'UTR-driven reporter translation, confirmation, H4 neuroglioma cells, luminescence (AID 1988); type: functional, cell-based
Vero = test: host cell cytotoxicity of antiviral hits, dose response, cytotoxicity control for West Nile virus antiviral project, secondary assay (AID 1650); type: functional; settings: Chlorocebus sabaeus
[2] = inhibitors of firefly luciferase expression or activity, dose response, H4 neuroglioma cells, luminescence (AID 1990); type: functional, cell-based
[3] = Luminescence Cell-Based Dose Response HTS to Identify Inhibitors of 5'UTR Stem-Loop Driven Prion Protein mRNA Translation in H4 Neuroglioblastoma Cells. [Related pubchem assays: 1827 (Project Summary), 1813 (Primary HTS)]; type: functional
[4] = A cytotoxicity screen of small molecule inhibitors of the PhoP region in Salmonella typhi identified in the primary screen. [Related pubchem assays: 1850, 1864, 1985 ]; type: functional
[5] = biological target: Glyceraldehyde-3-phosphate dehydrogenase (Homo sapiens, UniProt P04406)
Glyceraldehyde-3-phosphate dehydrogenase, sequence (P04406 whole entry): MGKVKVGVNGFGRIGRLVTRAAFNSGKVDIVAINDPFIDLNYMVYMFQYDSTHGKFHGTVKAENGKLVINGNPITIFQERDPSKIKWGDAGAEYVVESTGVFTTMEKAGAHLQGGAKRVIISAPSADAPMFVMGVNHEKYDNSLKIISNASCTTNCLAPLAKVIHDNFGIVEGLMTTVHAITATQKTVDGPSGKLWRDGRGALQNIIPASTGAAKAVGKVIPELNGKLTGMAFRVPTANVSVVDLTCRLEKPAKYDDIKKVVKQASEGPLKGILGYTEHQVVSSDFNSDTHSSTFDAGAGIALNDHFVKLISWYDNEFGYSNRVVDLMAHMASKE

Estrogen receptor beta = Estrogen receptor beta (Homo sapiens, UniProt Q92731); test: ERβ–SRC-3 coactivator interaction inhibitors, confirmation, orthogonal assay, biochemical, ELISA, streptavidin-HRP readout (AID 1060)
Estrogen receptor beta, sequence (Q92731 whole entry): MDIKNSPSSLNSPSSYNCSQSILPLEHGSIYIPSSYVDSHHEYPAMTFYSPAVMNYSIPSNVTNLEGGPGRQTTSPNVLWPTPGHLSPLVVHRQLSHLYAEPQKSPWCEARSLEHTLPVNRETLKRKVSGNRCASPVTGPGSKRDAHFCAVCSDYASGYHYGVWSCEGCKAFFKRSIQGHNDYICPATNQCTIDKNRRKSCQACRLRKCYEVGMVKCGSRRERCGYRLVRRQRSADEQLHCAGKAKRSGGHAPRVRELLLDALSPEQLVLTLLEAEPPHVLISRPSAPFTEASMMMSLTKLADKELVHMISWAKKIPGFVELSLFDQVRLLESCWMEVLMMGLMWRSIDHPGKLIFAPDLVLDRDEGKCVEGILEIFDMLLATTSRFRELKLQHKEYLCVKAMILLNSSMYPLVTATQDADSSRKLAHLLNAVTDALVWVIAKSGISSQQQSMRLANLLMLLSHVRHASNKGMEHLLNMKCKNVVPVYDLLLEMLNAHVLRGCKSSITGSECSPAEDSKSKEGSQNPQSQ

Leucine aminopeptidase = biological target: T1, Leucine aminopeptidase (Plasmodium falciparum 3D7, UniProt Q8IL11); test: P. falciparum M17LAP inhibitors, primary screen, biochemical, fluorogenic H-Leu-NHMec substrate, 1536-well (AID 1619); type: functional
T1 sequence (Q8IL11 whole entry): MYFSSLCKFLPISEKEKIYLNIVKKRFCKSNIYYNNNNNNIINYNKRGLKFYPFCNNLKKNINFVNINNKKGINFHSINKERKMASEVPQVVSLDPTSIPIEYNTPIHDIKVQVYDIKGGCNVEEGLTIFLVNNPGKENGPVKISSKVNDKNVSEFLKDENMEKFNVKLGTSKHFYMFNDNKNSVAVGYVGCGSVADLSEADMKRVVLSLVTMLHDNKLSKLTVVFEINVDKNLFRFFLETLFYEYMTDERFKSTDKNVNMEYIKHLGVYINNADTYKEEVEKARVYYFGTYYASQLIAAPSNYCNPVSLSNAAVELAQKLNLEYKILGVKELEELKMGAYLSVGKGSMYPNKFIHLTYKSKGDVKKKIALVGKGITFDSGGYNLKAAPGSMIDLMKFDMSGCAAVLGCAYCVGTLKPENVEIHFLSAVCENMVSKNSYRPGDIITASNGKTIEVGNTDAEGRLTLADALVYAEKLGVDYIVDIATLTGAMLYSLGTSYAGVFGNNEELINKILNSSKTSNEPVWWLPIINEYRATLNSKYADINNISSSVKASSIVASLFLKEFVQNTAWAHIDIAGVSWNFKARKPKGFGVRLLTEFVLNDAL

[6] = biological target: T2, Ubiquitin-conjugating enzyme E2 N (Homo sapiens, UniProt P61088); type: functional;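 also: Dose-response confirmation in a TR-FRET assay detecting UBC13-driven polyubiquitin chain formation, inhibition measured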
T2 sequence (P61088 whole entry): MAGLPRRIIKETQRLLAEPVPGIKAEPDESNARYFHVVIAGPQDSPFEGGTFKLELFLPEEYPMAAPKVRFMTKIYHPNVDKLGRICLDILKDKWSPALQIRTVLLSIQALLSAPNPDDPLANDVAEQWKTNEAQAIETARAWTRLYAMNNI

[7] = biological target: T3, DNA repair protein RAD52 homolog (Homo sapiens, UniProt P43351); type: functional, biochemical
T3 sequence (P43351 whole entry): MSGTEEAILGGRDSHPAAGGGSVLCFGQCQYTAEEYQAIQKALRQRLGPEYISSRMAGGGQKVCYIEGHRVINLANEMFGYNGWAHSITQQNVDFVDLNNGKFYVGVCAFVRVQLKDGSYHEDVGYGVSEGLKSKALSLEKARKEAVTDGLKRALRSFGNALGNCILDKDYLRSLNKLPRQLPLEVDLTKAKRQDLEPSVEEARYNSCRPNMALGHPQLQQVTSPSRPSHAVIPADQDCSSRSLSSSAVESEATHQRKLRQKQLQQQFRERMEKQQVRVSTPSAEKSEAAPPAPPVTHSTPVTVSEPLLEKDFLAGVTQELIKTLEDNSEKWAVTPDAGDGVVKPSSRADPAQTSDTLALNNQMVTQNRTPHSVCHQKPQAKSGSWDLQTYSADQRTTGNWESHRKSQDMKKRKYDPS

[8] = biological target: T4, Histone-lysine N-methyltransferase NSD2 (Homo sapiens, UniProt O96028); type: biochemical
T4 sequence (O96028 whole entry): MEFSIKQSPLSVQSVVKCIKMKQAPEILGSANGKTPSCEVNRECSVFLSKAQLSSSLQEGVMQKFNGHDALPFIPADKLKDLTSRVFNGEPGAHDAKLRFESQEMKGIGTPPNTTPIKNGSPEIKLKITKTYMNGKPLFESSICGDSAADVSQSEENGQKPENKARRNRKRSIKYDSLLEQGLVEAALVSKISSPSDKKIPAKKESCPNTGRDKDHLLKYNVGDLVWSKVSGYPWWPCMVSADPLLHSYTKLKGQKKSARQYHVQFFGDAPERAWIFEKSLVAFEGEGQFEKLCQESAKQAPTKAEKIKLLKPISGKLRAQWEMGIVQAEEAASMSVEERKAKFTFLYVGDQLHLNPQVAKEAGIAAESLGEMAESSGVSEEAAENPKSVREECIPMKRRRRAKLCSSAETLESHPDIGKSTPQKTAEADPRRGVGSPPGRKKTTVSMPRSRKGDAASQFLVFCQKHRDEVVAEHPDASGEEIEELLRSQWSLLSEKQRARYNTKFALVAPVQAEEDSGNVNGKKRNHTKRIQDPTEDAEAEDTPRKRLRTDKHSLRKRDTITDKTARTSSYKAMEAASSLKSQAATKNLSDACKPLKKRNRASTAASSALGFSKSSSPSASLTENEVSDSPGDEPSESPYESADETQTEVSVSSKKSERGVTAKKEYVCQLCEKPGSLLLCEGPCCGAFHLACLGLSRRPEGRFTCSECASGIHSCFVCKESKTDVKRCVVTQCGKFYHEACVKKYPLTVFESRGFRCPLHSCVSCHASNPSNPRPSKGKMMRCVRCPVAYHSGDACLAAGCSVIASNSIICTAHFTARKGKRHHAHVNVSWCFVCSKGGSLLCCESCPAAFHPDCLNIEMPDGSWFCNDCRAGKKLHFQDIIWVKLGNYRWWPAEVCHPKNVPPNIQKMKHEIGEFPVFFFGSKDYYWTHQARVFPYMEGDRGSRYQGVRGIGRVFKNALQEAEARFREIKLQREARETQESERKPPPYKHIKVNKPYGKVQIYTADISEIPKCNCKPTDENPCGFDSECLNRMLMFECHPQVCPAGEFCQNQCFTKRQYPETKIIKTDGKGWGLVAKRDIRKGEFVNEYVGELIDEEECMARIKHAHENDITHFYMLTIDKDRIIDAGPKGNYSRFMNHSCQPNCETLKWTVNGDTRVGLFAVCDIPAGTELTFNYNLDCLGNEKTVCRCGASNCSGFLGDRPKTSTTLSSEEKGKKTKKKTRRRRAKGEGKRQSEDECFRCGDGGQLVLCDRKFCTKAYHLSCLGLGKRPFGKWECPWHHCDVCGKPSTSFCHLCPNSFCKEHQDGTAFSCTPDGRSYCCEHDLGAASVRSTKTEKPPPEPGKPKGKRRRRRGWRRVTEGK

[9] = HEp-2 cell cytotoxicity, dose response, cytotoxicity control for RSV inhibitor project, HTS (AID 2410); type: functional; settings: human respiratory syncytial virus
[10] = biological target: T5, Polyadenylate-binding protein 1 (Homo sapiens, UniProt P11940); test: PABP1 MLLE–PAM2 interaction inhibitors, dose response, miRNA deadenylation inhibitor project, biochemical, fluorescence polarization, Cy5-PAM2 peptide, secondary (AID 602260); type: functional; settings: read-out: IC50_Mean
T5 sequence (P11940 whole entry): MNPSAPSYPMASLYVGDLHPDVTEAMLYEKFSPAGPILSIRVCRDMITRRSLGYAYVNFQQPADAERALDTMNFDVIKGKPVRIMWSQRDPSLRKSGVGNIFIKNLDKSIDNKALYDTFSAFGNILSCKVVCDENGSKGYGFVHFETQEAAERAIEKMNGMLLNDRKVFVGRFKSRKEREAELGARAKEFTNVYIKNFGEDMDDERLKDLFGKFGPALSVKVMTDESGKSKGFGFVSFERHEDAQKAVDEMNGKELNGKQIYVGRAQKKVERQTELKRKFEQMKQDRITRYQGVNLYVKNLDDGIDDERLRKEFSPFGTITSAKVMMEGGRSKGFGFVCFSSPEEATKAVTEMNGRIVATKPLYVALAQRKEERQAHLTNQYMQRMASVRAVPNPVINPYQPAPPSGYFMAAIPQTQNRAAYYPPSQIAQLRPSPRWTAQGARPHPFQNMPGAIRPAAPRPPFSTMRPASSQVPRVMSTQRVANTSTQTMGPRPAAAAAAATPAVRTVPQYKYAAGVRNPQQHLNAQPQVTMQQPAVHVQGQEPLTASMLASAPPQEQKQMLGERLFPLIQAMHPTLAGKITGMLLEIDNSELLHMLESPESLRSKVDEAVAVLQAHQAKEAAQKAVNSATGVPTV

[11] = biological target: T5, Polyadenylate-binding protein 1; test: PABP1 MLLE–PAM2 binding inhibitor potency, dose response, biochemical, fluorescence polarization, FITC-PAM2 peptide (AID 602259); type: functional; settings: read-out: IC50_Mean
[12] = HEK293T cytotoxicity, dose response, cytotoxicity control for miR-122 modulator project, cell-based, inhibitor set, cherry-pick, set 2 (AID 720697); type: functional

CN1CCN(c2nc3ccccc3nc2C(C#N)S(=O)(=O)c2ccccc2)CC1 (stereo unspecified)
EC50 [1]: 18.8 µM (active) | CC50 (Vero): 4.16 µM (active) | EC50 [2]: > 120 µM (not active) | EC50 [3]: > 120 µM (not active)

Cc1cc(C)nc(SCC(=O)Nc2sc3c(c2C#N)CCC(C)C3)n1 (stereo unspecified)
EC50 [4]: > 50 µM (active)

O=C1C(Cl)=C(N2CCN(c3ccccc3)CC2)C(=O)N1c1ccc(C(F)(F)F)cc1
IC50 [5]: > 50 µM (inconclusive)

CCn1cc(-c2cc(C(F)(F)F)n3nc(C(=O)O)cc3n2)c(C)n1
IC50 (Estrogen receptor beta): 3.41 µM (not active)

Cc1ccc(C(=O)Nc2nc(=O)n(C(=O)CC(C)C)s2)cc1
IC50 (Leucine aminopeptidase): 24.5 µM (active)

COc1ccc(-n2cnc3c(sc4nc(N5CCOCC5)c5c(c43)CCCC5)c2=O)cc1
EC50 [4]: > 50 µM (active)

CN(C)CCn1cnc2c(c1=N)C(c1ccccc1)c1ccc3ccccc3c1O2 (stereo unspecified)
EC50 [1]: > 120 µM (not active) | IC50 [6]: > 20 µM (inactive) | AC50 [7]: 23.6 µM (active) | EC50 [2]: > 120 µM (not active) | EC50 [3]: 0.18 µM (active)

O=C(Nc1ccc(Cl)cc1-c1nc2ccccc2s1)c1ccco1
CC50 (Vero): 13.3 µM (active)

CCCN(CCC)CCCN=C(S)Nc1ccc2nc(N3CCN(CC)CC3)cc(C)c2c1
AC50 [7]: 5.26 µM (active) | AC50 [8]: > 20 µM (inactive)

Cc1ccc(C)c(Nc2cc(C)nc3ccccc23)c1
EC50 [4]: > 50 µM (active) | CC50 [9]: 16.9 µM (active)

O=C(O)COc1ccc(Br)cc1/C=C1/SC(=O)N(CC(=O)N2CCCC2)C1=O
IC50 (Leucine aminopeptidase): 34.8 µM (active)

Cc1nnc(N2C(=O)c3oc4ccccc4c(=O)c3C2c2ccco2)s1 (stereo unspecified)
IC50 [10]: > 66 µM (inactive) | IC50 [11]: > 66 µM (inactive) | IC50 (Estrogen receptor beta): 0.0501 µM (not active)

COCC(=O)NC[C@H]1[C@@H](c2ccc(C3=CCCC3)cc2)[C@@H](CO)N1C(=O)C1CC1
AC50 [12]: 9.14 µM (active)

O=C(O)CC/C(=N/NC(=O)c1cccs1)c1ccccc1
IC50 (Leucine aminopeptidase): 36 µM (active)

COc1ccc(Br)cc1S(=O)(=O)Nc1cnc2ccccc2c1
IC50 [5]: > 100 µM (not active)
